How the values were obtained:
[1] = system: renal brush border membrane vesicles; assay: Na+-dependent uptake of [14C] fructose by renal brush border membrane vesicles; format: biochemical, rat; conditions: [14C] fructose 2 mM, 15 seconds at 25° C., glucose analog 30 mM, phloridzin or phloretin 50 μM; for Na+-dependent uptake of [14C] fructose by renal brush border membrane vesicles: KCl uptake deducted
Procedure: Membrane vesicles (20 μl) suspended in 100 mM mannitol and 10 mM HEPES (pH 7.5) were incubated with a substrate mixture (20 μl) containing 100 mM mannitol, 200 mM NaCl (black circle: ●) or KCl (white circle: ∘), 4 mM [^14C] fructose and 10 mM HEPES (pH 7.5) at 25° C. The values indicate mean±S.E.M of 3 independent experiments, respectively. Each experiment was conducted with brush border membrane vesicles isolated from 5 rats.
Na^+-dependent uptake of fructose by renal brush border membrane vesicles was analyzed in the presence of NaCl in an incubation buffer solution of various concentrations (0.1 to 20 mM) for 15 seconds at 25° C., and the uptake in case where NaCl is substituted with KCl was deduced. […] Each point indicates mean±S.E.M of 3 measurements. The apparent Km and Vmax values were obtained from 3 independent experiments.
In the presence and absence of phloridzin (50 μM) or phloretin (50 μM), a glucose analog (30 mM), membrane vesicles (20 μl) suspended in 100 mM mannitol and 10 mM HEPES (pH 7.5) were incubated with a substrate mixture (20 μl) containing [^14C] fructose (finally, 2 mM, 74 kBq/ml) for 15 seconds at 25° C., and the uptake in case where NaCl is substituted with KCl was deduced. […] The values indicate mean±S.E.M of 3 independent experiments, respectively.

[2] = target: T1, rNaGLT1 (Rattus norvegicus, UniProt Q80T22, M166I/S3F); assay: Uptake of [14C] fructose by HEK293 cells transfected with rNaGLT1; format: cell-based; conditions: [14C] fructose 0.1 mM, 15 minutes at 37° C., glucose analog 30 mM, phloridzin or phloretin 50 μM; for Uptake of [14C] fructose by HEK293 cells expressing rNaGLT1: vector uptake deducted
T1 construct: expressed in transfected cells; host or cells: HEK293 cells, transient transfection, assayed 2 days later
T1 sequence (Q80T22 1-484 S3F/M166I): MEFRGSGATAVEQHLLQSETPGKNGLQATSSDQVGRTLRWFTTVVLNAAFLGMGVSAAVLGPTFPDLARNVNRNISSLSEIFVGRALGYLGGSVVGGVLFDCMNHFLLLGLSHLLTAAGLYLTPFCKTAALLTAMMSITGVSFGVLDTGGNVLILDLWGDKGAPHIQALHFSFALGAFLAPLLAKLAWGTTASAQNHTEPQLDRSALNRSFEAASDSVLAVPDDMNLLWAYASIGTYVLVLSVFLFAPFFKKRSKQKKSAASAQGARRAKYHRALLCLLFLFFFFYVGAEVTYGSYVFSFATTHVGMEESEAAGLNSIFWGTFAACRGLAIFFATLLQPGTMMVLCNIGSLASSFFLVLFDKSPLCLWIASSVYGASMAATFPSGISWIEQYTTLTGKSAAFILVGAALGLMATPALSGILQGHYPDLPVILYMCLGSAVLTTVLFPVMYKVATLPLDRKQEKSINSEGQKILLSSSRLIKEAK
Procedure: As to HEK293 cells incubated with buffer solution containing glucose analog (0.1 mM, 37 kBq/ml) for 15 minutes at 37° C., uptake analysis was conducted 2 days after the transfection of a vector (white column, 0.8 μg/well) or rNaGLT1 cDNA (black column, 0.8 μg/well). Each column indicates mean±S.E.M obtained from 3 single layers.
In the presence and absence of phloridzin (50 μM) or phloretin (50 μM), a glucose analog (30 mM), the uptake of [^14C] fructose (0.1 mM, 37 kBq/ml) by HEK293 cells transfected with rNaGLT1 was measured for 15 minutes at 37° C., and the uptake measured in HEK293 cells transfected with a vector was deducted. […] The values indicate mean±S.E.M of 3 independent experiments, respectively.

[3] = target: T2, NaGLT1 (Rattus norvegicus, UniProt Q80T22, M166I/S3F); assay: Effect of inhibitors on uptake of [14C]-labeled αMeGlc by NaGLT1-expressing oocytes; format: cell-based
T2 construct: expressed in transfected cells; host or cells: Xenopus oocytes injected with NaGLT1 RNA synthesized in vitro
T2 sequence (Q80T22 1-484 S3F/M166I): T1 sequence (Q80T22 1-484 S3F/M166I)
Procedure: (§1) Uptake activity of NaGLT1 cRNA-injected cell and water-injected oocyte to [U-^14C]-α-methyl-D-glucopyranoside (α-MeGlc), D-[1-^14C] galactose, D-[U-^14C] mannose, D-[U-^14C] fructose, [1,2-^3H]-2-deoxy-glucose, D-[1-^3H] mannitol, [U-^14C] sucrose was measured. At that time, incubation was conducted in a buffer solution comprising 96 mM NaCl, 2 mM KCl, 1.8 mM CaCl2, 1 mM MgCl2, 5 mM HEPES (pH 7.4). Further, when extracellular Na^+ concentration dependency was conducted, the concentration of NaCl was adjusted to be within the range of 9.6 to 96 mM, and the final osmotic pressure was kept constant by making up for the shortage to 96 mM with choline chloride (FIGS. 6 and 7).

[4] = target: T2, NaGLT1; assay: Uptake of radio-labeled saccharides by NaGLT1-expressing Xenopus oocytes; format: cell-based
Procedure: Transportation activity of NaGLT1 was examined with the expression system of Xenopus oocytes (hereinafter abbreviated as oocytes). First, in order to examine the selectivity of various saccharides, NaGLT1 RNA synthesized in vitro was injected into the oocyte and incubated for 2 days at 18° C., then used for the experiment.
as §1
Next, concentration dependency of αMeGlc uptake was examined by using NaGLT1-expressing oocytes. […] In addition, the effect of extracellular Na^+ ion concentration on the uptake of αMeGlc mediated by NaGLT1 was analyzed. First, extracellular Na^+ concentration was varied from 0 to 96 mM, at the state wherein membrane potential difference was eliminated by the addition of 7 μM valinomycin, and the effect of extracellular Na^+ on the uptake of αMeGlc by rNaGLT1 was examined. […] Further, by examination of dose- or extracellular Na^+-dependancy to the uptake of αMeGlc by rNaGLT1 (FIGS. 6A and 6C), Vmax value (the maximum transport rate) and Km value were calculated for each case. Based on those values, Hill plot (logarithmic values of the figure calculated by dividing Vmax by transport rate V when the abscissa axis is the concentration of varied substrate or ion, and ordinate axis is each substrate (or ion) concentration) was conducted (FIGS. 6B and 6D) and Hill coefficient was calculated. […]

SMILES: O=C[C@H](O)[C@@H](O)[C@@H](O)[C@H](O)CO [Galactose, galactose]
- Na+-dependent uptake of [14C] fructose by renal brush border membrane vesicles, % of control [1]: 71 % of control
- Na+-dependent uptake of [14C] fructose by renal brush border membrane vesicles [1]: 35.2 ± 3.3 Pmol/mg protein/sec
- Uptake of [14C] fructose by HEK293 cells expressing rNaGLT1, % of control [2]: 99 % of control
- Uptake of [14C] fructose by HEK293 cells expressing rNaGLT1 [2]: 2.88 ± 0.23 Pmol/mg protein/min
- effect on the uptake of [14C]-labeled αMeGlc [3]: no effect

SMILES: CO[C@@H]([C@H](O)[C@H](O)CO)[C@@H](O)C=O [3-OMG, 3-O-methylglucose]
- Na+-dependent uptake of [14C] fructose by renal brush border membrane vesicles, % of control [1]: 95 % of control
- Na+-dependent uptake of [14C] fructose by renal brush border membrane vesicles [1]: 47.1 ± 4.5 Pmol/mg protein/sec
- Uptake of [14C] fructose by HEK293 cells expressing rNaGLT1, % of control [2]: 89 % of control
- Uptake of [14C] fructose by HEK293 cells expressing rNaGLT1 [2]: 2.60 ± 0.15 Pmol/mg protein/min
- effect on the uptake of [14C]-labeled αMeGlc [3]: no effect

SMILES: O=C(CCc1ccc(O)cc1)c1c(O)cc(O)cc1O[C@@H]1O[C@H](CO)[C@@H](O)[C@H](O)[C@H]1O [Phloridzin, phloridzin]
- Uptake of [14C] fructose by HEK293 cells expressing rNaGLT1, % of control [2]: 12 % of control

SMILES: O=C[C@H](O)[C@@H](O)[C@H](O)[C@H](O)CO [D-glucose]
- effect on the uptake of [14C]-labeled αMeGlc [3]: extremely strong inhibitory effect

SMILES: CO[C@H]1O[C@H](CO)[C@@H](O)[C@H](O)[C@H]1O [αMeGlc, α-methyl-D-glucopyranoside]
- Na+-dependent uptake of [14C] fructose by renal brush border membrane vesicles, % of control [1]: 48 % of control
- Na+-dependent uptake of [14C] fructose by renal brush border membrane vesicles [1]: 23.8 ± 2.1 Pmol/mg protein/sec
- Uptake of [14C] fructose by HEK293 cells expressing rNaGLT1, % of control [2]: 42 % of control
- Uptake of [14C] fructose by HEK293 cells expressing rNaGLT1 [2]: 1.24 ± 0.13 Pmol/mg protein/min
- Hill coefficient ([4]; Hill plot of αMeGlc uptake by rNaGLT1, dose- or extracellular Na+-dependency): 1.06
- Km ([4]; NaGLT1-expressing oocytes, concentration dependency, read-out: Km value of αMeGlc uptake): 3.71 ± 0.09 mM
- uptake of radio-labeled saccharide in comparison to water-injected oocytes ([4]; NaGLT1 RNA-injected Xenopus oocytes, incubated 2 days at 18° C.): significantly high
- effect on the uptake of [14C]-labeled αMeGlc [3]: extremely strong inhibitory effect

SMILES: OC[C@H]1O[C@H](CO)[C@@H](O)[C@@H]1O [2,5-AM]
- Na+-dependent uptake of [14C] fructose by renal brush border membrane vesicles, % of control [1]: 78 % of control
- Na+-dependent uptake of [14C] fructose by renal brush border membrane vesicles [1]: 38.6 ± 2.6 Pmol/mg protein/sec
- Uptake of [14C] fructose by HEK293 cells expressing rNaGLT1, % of control [2]: 40 % of control
- Uptake of [14C] fructose by HEK293 cells expressing rNaGLT1 [2]: 1.16 ± 0.16 Pmol/mg protein/min

SMILES: O=C[C@@H](O)[C@H](O)[C@@H](O)[C@@H](O)CO [L-glucose]
- effect on the uptake of [14C]-labeled αMeGlc [3]: no effect

SMILES: OC[C@H]1O[C@@](CO)(O[C@H]2O[C@H](CO)[C@@H](O)[C@H](O)[C@H]2O)[C@@H](O)[C@@H]1O [Sucrose, sucrose]
- Na+-dependent uptake of [14C] fructose by renal brush border membrane vesicles, % of control [1]: 96 % of control
- Na+-dependent uptake of [14C] fructose by renal brush border membrane vesicles [1]: 47.3 ± 6.0 Pmol/mg protein/sec
- Uptake of [14C] fructose by HEK293 cells expressing rNaGLT1, % of control [2]: 144 % of control
- Uptake of [14C] fructose by HEK293 cells expressing rNaGLT1 [2]: 4.20 ± 0.17 Pmol/mg protein/min

SMILES: O=C(CO)[C@@H](O)[C@H](O)[C@H](O)CO [Fructose, fructose]
- Na+-dependent uptake of [14C] fructose by renal brush border membrane vesicles, % of control [1]: 11 % of control
- Na+-dependent uptake of [14C] fructose by renal brush border membrane vesicles [1]: 5.4 ± 2.1 Pmol/mg protein/sec
- Uptake of [14C] fructose by HEK293 cells expressing rNaGLT1, % of control [2]: 8 % of control
- Uptake of [14C] fructose by HEK293 cells expressing rNaGLT1 [2]: 0.22 ± 0.06 Pmol/mg protein/min
- effect on the uptake of [14C]-labeled αMeGlc [3]: weak inhibitory effect

SMILES: O=C(CCc1ccc(O)cc1)c1c(O)cc(O)cc1O [Phloretin, phloretin]
- Na+-dependent uptake of [14C] fructose by renal brush border membrane vesicles, % of control [1]: 72 % of control
- Na+-dependent uptake of [14C] fructose by renal brush border membrane vesicles [1]: 35.8 ± 3.5 Pmol/mg protein/sec
- Uptake of [14C] fructose by HEK293 cells expressing rNaGLT1, % of control [2]: 33 % of control
- Uptake of [14C] fructose by HEK293 cells expressing rNaGLT1 [2]: 0.97 ± 0.09 Pmol/mg protein/min
- effect on the uptake of [14C]-labeled αMeGlc [3]: weak inhibitory effect

SMILES: O=CC[C@@H](O)[C@H](O)[C@H](O)CO [2-DG, 2-deoxyglucose]
- Na+-dependent uptake of [14C] fructose by renal brush border membrane vesicles, % of control [1]: 34 % of control
- Na+-dependent uptake of [14C] fructose by renal brush border membrane vesicles [1]: 16.8 ± 3.7 Pmol/mg protein/sec
- Uptake of [14C] fructose by HEK293 cells expressing rNaGLT1, % of control [2]: 70 % of control
- Uptake of [14C] fructose by HEK293 cells expressing rNaGLT1 [2]: 2.04 ± 0.19 Pmol/mg protein/min
- effect on the uptake of [14C]-labeled αMeGlc [3]: extremely strong inhibitory effect

From US20060116505A1, “Glucose and/or fructose transporter naglt1 and its gene” (priority 2002, published 2006)
